The nature of data set [1]: Pharmacokinetics in male Sprague Dawley rats, intravenous injection. It counts as in vivo. Conditions: rat, plasma, 1 mg/kg; male SD rats, n=3, intravenous injection, 0.2 mg/mL, 5 mL/kg. How it is done:
Test compounds was dissolved in 5% DMSO+95% (10% HP-β-CD in Saline) to a concentration of 0.2 mg/mL and given to SD rats (Male, n=3) by intravenous injection (5 mL/kg). Blood samples were collected at 0.083 h, 0.25, 0.5, 1, 2, 4, 8, and 24 h after injection (anticoagulant:K2-EDTA). These tubes were kept in an ice bath prior to centrifugation at approximately 6800 g for 6 minutes at approximately 5° C. Samples were analyzed for the presence of the test compound with an TQ5500 mass spectrometer (AB Sciex) coupled to an ACQUITY UPLC BEH C18 (1.7 μm, 2.1 mm×50 mm) HPLC column. Gradient elution was applied consisting of ultrapure water containing 0.1% formic acid and acetonitrile containing 0.1% formic acid. Standard set of parameters including Area Under the Curve (AUC (0-t) and […]), elimination half-live (T1/2), maximum plasma concentration (Cmax), time to reach maximum plasma concentration (Tmax) will be calculated using non-compartmental analysis modules in Phoenix WinNonlin 7.0 (Pharsight, USA).

In the next data set the test system is HCT116 MTAP−/−. The data set can be described thus: Inhibition of cellular proliferation (Cell Titer Glo), HCT116 MTAP-/-. It counts as cell-based. Particulars: Homo sapiens, HCT-116, 120 h, 5 days treatment. The protocol: (§1) Test compound impact on cancer cell growth was assessed by treating cancer cells with compound for 5 days and then measuring proliferation using an ATP-based cell proliferation readout (Cell Titer Glo, Promega Corporation).
(§2) In a typical assay an isogenic pair of HCT116 human colon carcinoma cell lines which vary only in MTAP deletion status (HCT116 MTAP+/+ and HCT116 MTAP−/−) were plated in 96-well dishes at appropriate cell density. Following 24 hours, cells were then treated with the candidate MAT2A inhibitor. Prior to addition to cells, the compound was first serially diluted in DMSO, typically as a 3-fold serial dilution with 9 dose points.
(§3) Compound was then transferred to a working stock plate in cell culture media by adding 3 μl of compound in DMSO to 297 μl of cell culture media. […]
(§4) To measure inhibition of cellular proliferation, cells were allowed to equilibrate to room temperature for 30 minutes, and were then treated with 40 μl of Cell Titer Glo reagent. […] Luminescent signal of the Cell Titer Glo reagent was then measured using a plate-based luminometer and normalized via an ATP standard curve. This luminescence measure was converted to a proliferation index by subtracting from each datapoint the ATP luminescence measured from a control cell plate that was measured at the time of compound treatment. […]

For a further data set, the system named is HCT116 MTAP+/+. Put plainly: Inhibition of cellular proliferation (Cell Titer Glo), HCT116 WT (MTAP+/+). In kind it is cell-based. Particulars: Homo sapiens, HCT-116, 120 h, 5 days treatment. How it is done:
as §1, §2, §3, §4
A general note: ATP-based viability assays read luminescence as a measure of living cells.

The nature of data set [2]: Stability of 1 mg capsules (total impurity). Conditions: 1 mg capsules in aluminum blister foils. In kind it is physicochemical. How it is done:
Compound 1 freebase Type A or Compound 1 maleate salt Type A was sieved with 40 mesh sieves, followed by mixing with the same amount of diluent, disintegrant and lubricant to prepare 1000 capsules. The strength of these capsules is 1 mg, and the capsules are packaged in aluminum blister foils. The stability of 1 mg capsules was investigated at 40° C./75% RH and 60° C., and the results were in Table 26.

Data set [3] can be described thus: Hygroscopicity evaluation (DVS). In kind it is physicochemical. Particulars: for hygroscopicity (in words): DVS at 25 °C, water uptake up to 80% RH; for water uptake up to 80% RH: DVS isotherm at 25 °C between 0% RH and 95% RH. How it is done:
Compound 1 Freebase Type A/B/C, Compound 1 maleate salt Type A, and Compound 1 citrate salt Type A were evaluated for hygroscopicity. DVS isotherm plots were collected at 25 ? between 0% RH and 95% RH.

Data set [4] in a line: Kinetic solubility evaluation. In kind it is physicochemical. Particulars: H2O, SGF and FaSSIF, 37 °C, solid loading ~10 mg/mL (calculated as freebase). How it is done:
Kinetic solubility of Compound 1 Freebase Type A, Compound 1 maleate salt Type A, and Compound 1 citrate salt Type A were measured in water, SGF (Simulated Gastric Fluid), FaSSIF (Fasted State Simulated Intestinal Fluid) and FeSSIF (Fed State Simulated Intestinal Fluid) at 37 ? with solid loading of ~10 mg/mL (calculated as freebase). The results are presented in FIG. 59A, FIG. 59B, FIG. 59C, and FIG. 59D.

Structures are written as SMILES. Counter-ions that a name gives are not always drawn.

`C#CCNc1nc(=O)n(-c2cccnc2C)c2cc(C(F)(F)F)cc(OC)c12` [Compound 1 Freebase Type A, 5-methoxy-1-(2-methylpyridin-3-yl)-4-(prop-2-yn-1-ylamino)-7-(trifluoromethyl) quinazolin-2 (1H)-one]: the clearance in data set [1] is 0.17 mL/min/kg. The 50% inhibitory concentration (IC50) is 0.198 µM in the data set with HCT116 MTAP−/− and 21 µM with HCT116 MTAP+/+. The Total impurity is given as 0.21% in data set [2] (40° C./75% RH, 0 d, listed as Free form Type A); 0.95% in data set [2] (40° C./75% RH, 10 d, listed as Free form Type A); 0.21% in data set [2] (60° C., 0 d, listed as Free form Type A); 4.4% in data set [2] (60° C., 5 d, listed as Free form Type A); 8.04% in data set [2] (60° C., 10 d). Further, the “hygroscopicity (in words)” value in data set [3] is reported as “slightly hygroscopic”. For the same compound, in data set [3], the “water uptake up to 80% RH” value is on record as ~ 0.3%.

As to `C#CCNc1nc(=O)n(-c2cccnc2C)c2cc(C(F)(F)F)cc(OC)c12` [Compound 1 Freebase Type B, 5-methoxy-1-(2-methylpyridin-3-yl)-4-(prop-2-yn-1-ylamino)-7-(trifluoromethyl) quinazolin-2 (1H)-one], the “water uptake up to 80% RH” value in data set [3] is ~ 11.6%.

As for `C#CCNc1nc(=O)n(-c2cccnc2C)c2cc(C(F)(F)F)cc(OC)c12` [Compound 1 Freebase Type C, 5-methoxy-1-(2-methylpyridin-3-yl)-4-(prop-2-yn-1-ylamino)-7-(trifluoromethyl) quinazolin-2 (1H)-one], the “water uptake up to 80% RH” value in data set [3] is listed as ~ 6.7%.

`C#CCNc1nc(=O)n(-c2cccnc2C)c2cc(C(F)(F)F)cc(OC)c12` [Compound 1 citrate salt Type A, 5-methoxy-1-(2-methylpyridin-3-yl)-4-(prop-2-yn-1-ylamino)-7-(trifluoromethyl) quinazolin-2 (1H)-one]: the “kinetic solubility compared with Compound 1 Freebase Type A” value in data set [4] was “improved solubility”. Also, in data set [3], the “hygroscopicity (in words)” value is recorded as “slightly hygroscopic” and the “water uptake up to 80% RH” value was found to be 1.6%.

As for `C#CCNc1nc(=O)n(-c2cccnc2C)c2cc(C(F)(F)F)cc(OC)c12` [Compound 1 maleate salt Type A, 5-methoxy-1-(2-methylpyridin-3-yl)-4-(prop-2-yn-1-ylamino)-7-(trifluoromethyl) quinazolin-2 (1H)-one], the “kinetic solubility compared with Compound 1 Freebase Type A” value in data set [4] is reported as “improved solubility”. Further, the “kinetic solubility compared with Compound 1 citrate salt Type A” value in data set [4] was “higher solubility”. The Total impurity in data set [2] (40° C./75% RH, 0 d, listed as Maleate Type A) amounted to 0.10%; in data set [2] (40° C./75% RH, 10 d, listed as Maleate Type A) it was 2.0%; in data set [2] (60° C., 0 d, listed as Maleate Type A), 0.10%; in data set [2] (60° C., 5 d, listed as Maleate Type A), 12.6%. The “hygroscopicity (in words)” value in data set [3] is listed as “non-hygroscopic”. For the same compound, the “water uptake up to 80% RH” value in data set [3] was ~ 0.07%.

Broadly, the clearance is a measure of how efficiently the substance is removed, as volume per time. As a reminder, the IC50 is the concentration that inhibits the measured activity by half.

The values are drawn from patent publication US20260285830A1, “CRYSTALLINE METHIONINE ADENOSYLTRANSFERASE 2a (MAT2A) INHIBITOR AND USES THEREOF” (Insilico Medicine IP Limited, priority 2023, published 2026).
